Source: patent US20060183721A1, “2-Methylene-19-nor-(20S-24epi)-1alpha,25-dihydroxyvitamin D2” (Wisconsin Alumni Research Foundation, priority 2005, published 2006)

Tests used:
[1] = molecular target: T1, full-length recombinant rat vitamin D receptor (Rattus norvegicus, UniProt P13053); assay: Vitamin D receptor competitive binding with [3H]-1,25-(OH)2-D3; conditions: compared with native hormone 1,25(OH)2D3; FIG. 1
T1 construct: Full-length recombinant rat receptor was expressed in E. coli BL21(DE3) Codon Plus RIL cells; histidine tag (C); made in house; host or cells: E. coli BL21(DE3) Codon Plus RIL
T1 sequence (P13053 1-423): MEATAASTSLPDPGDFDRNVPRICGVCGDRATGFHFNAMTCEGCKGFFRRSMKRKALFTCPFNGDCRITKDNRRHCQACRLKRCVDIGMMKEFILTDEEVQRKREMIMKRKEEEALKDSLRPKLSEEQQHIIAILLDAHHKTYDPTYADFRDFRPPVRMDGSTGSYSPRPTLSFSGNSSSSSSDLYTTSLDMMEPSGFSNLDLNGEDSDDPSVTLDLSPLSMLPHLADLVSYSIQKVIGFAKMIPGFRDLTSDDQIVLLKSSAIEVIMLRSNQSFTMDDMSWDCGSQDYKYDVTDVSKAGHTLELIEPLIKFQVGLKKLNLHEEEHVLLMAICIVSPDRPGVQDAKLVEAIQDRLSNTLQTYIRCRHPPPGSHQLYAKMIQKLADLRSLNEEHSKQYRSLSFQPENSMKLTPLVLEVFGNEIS
Text: FIG. 1 is a graph comparing the relative activity of (20S/24R) 2-MD2 and 1,25(OH)2D3 to compete for binding with [^3H]-1,25-(OH)2-D3 to the full-length recombinant rat vitamin D receptor.
Full-length recombinant rat receptor was expressed in E. coli BL21(DE3) Codon Plus RIL cells and purified to homogeneity using two different column chromatography systems. The first system was a nickel affinity resin that utilizes the C-terminal histidine tag on this protein. The protein that was eluted from this resin was further purified using ion exchange chromatography (S-Sepharose Fast Flow). Aliquots of the purified protein were quick frozen in liquid nitrogen and stored at −80° C. until use. For use in binding assays, the protein was diluted in TEDK50 (50 mM Tris, 1.5 mM EDTA, pH 7.4, 5 mM DTT, 150 mM KCl) with 0.1% Chaps detergent. […]
Unlabeled ligands were dissolved in ethanol and the concentrations determined using UV spectrophotometry (1,25(OH)2D3: molar extinction coefficient=18,200 and λmax=265 nm; Analogs: molar extinction coefficient=42,000 and λmax=252 nm). […]
Radiolabeled and unlabeled ligands were added to 100 mcl of the diluted protein at a final ethanol concentration of ≦10%, mixed and incubated overnight on ice to reach binding equilibrium. […] Total binding was determined from the tubes containing only radiolabeled ligand.

[2] = tested on: Human promyelocytic leukemia (HL60) cells; assay: HL-60 cell differentiation (nitro blue tetrazolium reduction); type: cell-based; conditions: compared with 1,25-(OH)2D3; FIG. 2
Description: FIG. 2 is a graph comparing the percent HL-60 cell differentiation as a function of the concentration of (20S/24R) 2-MD2 with that of 1,25(OH)2D3.
The study drugs were dissolved in ethanol and the concentrations determined using UV spectrophotometry. Serial dilutions were prepared so that a range of drug concentrations could be tested without changing the final concentration of ethanol (≦0.2%) present in the cell cultures.
Human promyelocytic leukemia (HL60) cells were grown in RPMI-1640 medium containing 10% fetal bovine serum. The cells were incubated at 37° C. in the presence of 5% CO2.
HL60 cells were plated at 1.2×10^5 cells/ml. Eighteen hours after plating, cells in duplicate were treated with drug. Four days later, the cells were harvested and a nitro blue tetrazolium reduction assay was performed (Collins et al., 1979; J. Exp. Med. 149:969-974). The percentage of differentiated cells was determined by counting a total of 200 cells and recording the number that contained intracellular black-blue formazan deposits. Verification of differentiation to monocytic cells was determined by measuring phagocytic activity (data not shown).

[3] = tested on: 24-hydroxylase (24Ohase) gene promoter in ROS 17/2.8 (bone) cells; assay: In vitro transcription assay (24-hydroxylase promoter luciferase reporter); type: cell-based; conditions: compared with 1,25-(OH)2D3; ROS 17/2.8 cells, 24Ohase-luciferase; FIG. 3
Description: FIG. 3 is a graph comparing the in vitro transcription activity of (20S/24R) 2-MD2 with that of 1,25(OH)2D3.
Transcription activity was measured in ROS 17/2.8 (bone) cells that were stably transfected with a 24-hydroxylase (24Ohase) gene promoter upstream of a luciferase reporter gene (Arbour et al., 1998). Cells were given a range of doses. Sixteen hours after dosing the cells were harvested and luciferase activities were measured using a luminometer. RLU=relative luciferase units.

[4] = Bone calcium mobilization (serum calcium); type: in vivo, Sprague-Dawley rats; conditions: compared with 1,25-(OH)2D3, rats, four consecutive ip doses, FIG. 4
Text: FIG. 4 is a bar graph comparing the bone calcium mobilization activity of (20S/24R) 2-MD2 with that of 1,25(OH)2D3.
(§1) Male, weanling Sprague-Dawley rats were placed on Diet 11 (Suda et al. J. Nutr. 100:1049, 1970) (0.47% Ca) diet+vitamins AEK for one week followed by Diet 11 (0.02% Ca)+AEK for 3 weeks. The rats were then switched to a diet containing 0.47% Ca for one week followed by two weeks on a diet containing 0.02% Ca. Dose administration began during the last week on 0.02% calcium diet. Four consecutive ip doses were given approximately 24 hours apart. Twenty-four hours after the last dose, blood was collected from the severed neck and the concentration of serum calcium determined as a measure of bone calcium mobilization. The first 10 cm of the intestine was also collected for intestinal calcium transport analysis using the everted gut sac method.

[5] = Intestinal calcium transport (everted gut sac method); type: in vivo, Sprague-Dawley rats; conditions: compared with 1,25-(OH)2D3, rats, four consecutive ip doses, FIG. 5
Text: FIG. 5 is a bar graph comparing the intestinal calcium transport activity of (20S/24R) 2-MD2 with that of 1,25(OH)2D3.
as §1

Q: For `C=C1[C@H](O)CC(=C/C=C2\CCC[C@]3(C)C([C@@H](C)/C=C/[C@@H](C)C(C)(C)O)CC[C@@H]23)C[C@H]1O` (stereo in doubt) [2-methylene-19-nor-(20S-24epi)-1α,25-dihydroxyvitamin D2], which “binding to the vitamin D receptor” value [1] is on record?
A: almost equal to the native hormone

Q: What about the “inducing differentiation of HL-60 cells” value [2] of the same compound?
A: more activity than 1,25-(OH)2D3

Q: What about the causing transcription [3] of the same compound?
A: more effective than 1,25-(OH)2D3

Q: What about the “bone calcium mobilizing activity” value [4] of the same compound?
A: more bone calcium mobilizing activity than 1,25-(OH)2D3

Q: And the “intestinal calcium transport activity” value [5]?
A: approximately equal to 1,25-(OH)2D3
